Like-named read-outs stand apart in the source and are kept apart here.
How the values were obtained:
[1] = system: PC-3 prostate cancer cells; assay: PC3 cell viability and proliferation assay (MTS); format: cell-based; details: Homo sapiens, PC-3, 72 h, read-out: PC3 D3 GI50
[2] = target: T1, USP5 (Homo sapiens, UniProt P45974); assay: USP5 activity assay; format: biochemical; details: 400 nM Ub-AMC, 300 pM enzyme, 30 min pre-incubation at 25° C., 60 min at 37° C.; sigmoidal fit; AF: Autofluorescent; read-out: USP 5 (inhibition of cysteine protease activity)
T1 sequence (P45974 1-858): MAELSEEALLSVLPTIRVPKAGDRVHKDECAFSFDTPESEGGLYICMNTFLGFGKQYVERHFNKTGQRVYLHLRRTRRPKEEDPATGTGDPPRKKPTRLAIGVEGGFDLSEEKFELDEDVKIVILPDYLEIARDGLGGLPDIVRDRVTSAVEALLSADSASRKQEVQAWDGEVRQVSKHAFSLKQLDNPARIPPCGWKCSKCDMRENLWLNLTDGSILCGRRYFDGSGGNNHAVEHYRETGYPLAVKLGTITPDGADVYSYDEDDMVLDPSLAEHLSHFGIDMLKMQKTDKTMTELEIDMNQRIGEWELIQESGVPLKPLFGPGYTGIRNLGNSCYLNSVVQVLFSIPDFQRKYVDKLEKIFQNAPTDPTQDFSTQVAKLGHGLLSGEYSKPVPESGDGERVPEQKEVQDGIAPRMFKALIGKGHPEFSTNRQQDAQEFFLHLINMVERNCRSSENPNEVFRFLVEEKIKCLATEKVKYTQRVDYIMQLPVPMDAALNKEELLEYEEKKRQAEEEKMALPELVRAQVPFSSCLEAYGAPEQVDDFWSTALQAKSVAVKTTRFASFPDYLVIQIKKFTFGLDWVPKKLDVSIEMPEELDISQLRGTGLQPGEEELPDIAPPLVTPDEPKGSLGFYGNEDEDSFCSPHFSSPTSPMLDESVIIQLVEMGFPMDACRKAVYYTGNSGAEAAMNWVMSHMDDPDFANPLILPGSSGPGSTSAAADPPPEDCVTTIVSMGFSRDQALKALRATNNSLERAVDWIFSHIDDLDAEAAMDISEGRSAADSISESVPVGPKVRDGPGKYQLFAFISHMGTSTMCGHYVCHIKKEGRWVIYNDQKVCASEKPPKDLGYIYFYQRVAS
Experimental: Bovine Serum Albumin 0.05 mg·ml^−1 pH7.6). Compounds stocks (100 mM) were stored at −20° C. in DMSO. […] Reactions were performed as duplicates in Black LJL 96 well plates (HE microplates; Molecular Devices; 20 μl final reaction volume). The substrate concentration for USP5 was 400 nM Ub-AMC (Boston Biochem). The concentrations of the enzyme (USP5) in specificity assays was 300 pM. The concentrations were determined in order to perform specificity assays under initial velocities at fixed substrate concentration. Compounds were pre-incubated with enzymes for 30 minutes at 25° C. Reactions were initiated by addition of substrate to the plates containing the enzymes (+/− compounds) diluted in assay buffer. Reactions were incubated for 60 minutes at 37° C. Reactions were stopped by adding acetic acid (100 mM final). Readings were performed on a Pherastar Fluorescent Reader (BMG). λ Emission 380 nm; λ Excitation=460 nm. Data (mean values +/− standard deviation) were analyzed as % of control (no compound) and plotted as percentage versus the Log of the compound concentration using GraphPad (Prism). Data were fitted to a sigmoidal model (variable slope).

[3] = system: HCT116 colon cancer cells; assay: HCT116 cell viability and proliferation assay (MTS); format: cell-based; details: Homo sapiens, read-out: HCT116 D3 GI50
[4] = target: T2, Uch-L3 (Homo sapiens, UniProt P15374); assay: UCH-L3 activity assay; format: biochemical; details: 400 nM Ub-AMC, 13 pM enzyme, 30 min pre-incubation at 25° C., 60 min at 37° C.; sigmoidal fit; AF: Autofluorescent; read-out: Uch-L3 (inhibition of cysteine protease activity)
T2 sequence (P15374 1-230): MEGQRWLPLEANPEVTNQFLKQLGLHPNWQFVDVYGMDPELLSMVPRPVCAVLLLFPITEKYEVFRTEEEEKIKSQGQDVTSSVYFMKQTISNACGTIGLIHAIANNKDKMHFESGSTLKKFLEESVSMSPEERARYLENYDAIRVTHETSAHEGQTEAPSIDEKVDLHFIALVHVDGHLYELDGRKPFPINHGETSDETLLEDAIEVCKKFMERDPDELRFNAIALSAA
Experimental: Bovine Serum Albumin 0.05 mg·ml^−1 pH7.6). Compounds stocks (100 mM) were stored at −20° C. in DMSO. […] Reactions were performed as duplicates in Black LJL 96 well plates (HE microplates; Molecular Devices; 20 μl final reaction volume). The substrate concentration for Uch-L3 was 400 nM Ub-AMC (Boston Biochem). The concentration of the enzyme (Uch-L3) in specificity assays was 13 pM. The concentrations were determined in order to perform specificity assays under initial velocities at fixed substrate concentration. Compounds were pre-incubated with enzymes for 30 minutes at 25° C. Reactions were initiated by addition of substrate to the plates containing the enzymes (+/−compounds) diluted in assay buffer. Reactions were incubated for 60 minutes at 37° C. Reactions were stopped by adding acetic acid (100 mM final). Readings were performed on a Pherastar Fluorescent Reader (BMG). δ Emission 380 nm; δ Excitation=460 nm. Data (mean values+/− standard deviation) were analyzed as % of control (no compound) and plotted as percentage versus the Log of the compound concentration using GraphPad (Prism). Data were fitted to a sigmoidal model (variable slope).

[5] = target: T3, USP7 (Homo sapiens, UniProt Q93009); assay: USP7 activity assay; format: biochemical
T3 construct: His tag (from pFastBac-HT vector) (N); made in house; host or cells: insect cells (Sf9 or High Five), baculovirus
T3 sequence (Q93009 whole entry): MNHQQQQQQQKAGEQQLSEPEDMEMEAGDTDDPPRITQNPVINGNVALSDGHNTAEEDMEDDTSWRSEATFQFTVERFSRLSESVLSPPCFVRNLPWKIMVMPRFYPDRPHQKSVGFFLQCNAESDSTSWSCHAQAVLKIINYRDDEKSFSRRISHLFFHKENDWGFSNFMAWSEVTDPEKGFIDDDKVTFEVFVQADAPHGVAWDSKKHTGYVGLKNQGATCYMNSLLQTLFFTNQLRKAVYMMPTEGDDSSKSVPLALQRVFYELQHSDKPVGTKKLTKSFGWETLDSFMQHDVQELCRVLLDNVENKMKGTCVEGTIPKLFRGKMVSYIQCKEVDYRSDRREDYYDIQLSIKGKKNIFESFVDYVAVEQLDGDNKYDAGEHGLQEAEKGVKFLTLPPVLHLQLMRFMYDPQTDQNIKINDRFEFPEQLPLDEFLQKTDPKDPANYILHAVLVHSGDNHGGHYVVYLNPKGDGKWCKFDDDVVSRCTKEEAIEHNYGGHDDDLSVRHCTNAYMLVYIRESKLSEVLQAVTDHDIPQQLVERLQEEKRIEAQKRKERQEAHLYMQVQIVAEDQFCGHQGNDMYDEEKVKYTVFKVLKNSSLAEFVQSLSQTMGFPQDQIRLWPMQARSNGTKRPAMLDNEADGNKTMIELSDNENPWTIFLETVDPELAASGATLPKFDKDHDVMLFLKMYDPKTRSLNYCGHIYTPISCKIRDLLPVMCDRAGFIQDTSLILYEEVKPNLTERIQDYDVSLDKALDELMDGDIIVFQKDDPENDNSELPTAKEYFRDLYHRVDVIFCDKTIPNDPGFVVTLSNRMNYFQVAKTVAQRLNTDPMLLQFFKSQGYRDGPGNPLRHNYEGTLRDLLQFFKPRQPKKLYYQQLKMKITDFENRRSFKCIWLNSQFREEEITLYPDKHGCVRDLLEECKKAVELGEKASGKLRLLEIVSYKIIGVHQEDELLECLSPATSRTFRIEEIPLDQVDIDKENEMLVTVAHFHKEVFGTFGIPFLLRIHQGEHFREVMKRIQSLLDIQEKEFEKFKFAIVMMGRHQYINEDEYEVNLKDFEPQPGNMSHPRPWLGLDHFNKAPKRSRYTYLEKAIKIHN

[6] = PC3 cells, 72 hours incubation, MTS, mean of 3 independent experiments
[7] = HCT-116, HCT116 cells, 72 hours incubation, MTS, mean of 3 independent experiments
[8] = 400 nM Ub-AMC, 152 pM enzyme, 30 min pre-incubation at 25° C., 60 min at 37° C., sigmoidal fit, read-out: USP 7 (inhibition of cysteine protease activity)

COc1nc2c(nc1C#N)C(=O)c1ccccc1-2 [Example 3, 3-methoxy-9-oxo-9H-indeno[1,2-b]pyrazine-2-carbonitrile]
GI50 [1, 6]: > 10 µM
IC50 [2]: > 100 µM
GI50 [3, 7]: > 10 µM
IC50 [4]: 13 µM
IC50 [5, 8]: > 100 µM

CN(C)c1nc2c(nc1C#N)C(=O)c1ccccc1-2 [Example 4, 3-dimethylamino-9-oxo-9H-indeno[1,2-b]pyrazine-2-carbonitrile]
GI50 [1, 6]: > 10 µM
IC50 [2]: > 100 µM
GI50 [3, 7]: > 10 µM
IC50 [4]: > 100 µM
IC50 [5, 8]: > 100 µM

COCCOc1nc2c(nc1C#N)C(=O)c1ccccc1-2 [Example 5, 3-(2-methoxy-ethoxy)-9-oxo-9H-indeno[1,2-b]pyrazine-2-carbonitrile]
GI50 [1, 6]: > 10 µM
IC50 [2]: > 100 µM
GI50 [3, 7]: > 10 µM
IC50 [4]: 24 µM
IC50 [5, 8]: > 100 µM

N#Cc1nc2c(nc1O)-c1ccccc1C2=O [Example 6, 3-hydroxy-9-oxo-9H-indeno[1,2-b]pyrazine-2-carbonitrile]
GI50 [1, 6]: > 10 µM
IC50 [2]: 9.1 µM
GI50 [3, 7]: > 10 µM
IC50 [4]: 1.1 µM
IC50 [5, 8]: 21.8 µM

N#Cc1nc2c(nc1N)-c1ccccc1C2=O [Example 7, 3-amino-9-oxo-9H-indeno[1,2-b]pyrazine-2-carbonitrile]
GI50 [1, 6]: > 10 µM
IC50 [2]: > 100 µM
GI50 [3, 7]: > 10 µM
IC50 [4]: 52 µM
IC50 [5, 8]: > 100 µM

N#Cc1nc2c(nc1N1CCC(F)(F)CC1)-c1ccccc1C2=O [Example 8, 3-(4,4-difluoro-piperidin-1-yl)-9-oxo-9H-indeno[1,2-b]-pyrazine-2-carbonitrile]
GI50 [1, 6]: > 10 µM
IC50 [2]: > 100 µM
GI50 [3, 7]: > 10 µM
IC50 [4]: > 100 µM
IC50 [5, 8]: > 100 µM

N#Cc1nc2c(nc1Cl)-c1ccccc1C2=O [Example 9, 3-chloro-9-oxo-9H-indeno[1,2-b]pyrazine-2-carbonitrile]
GI50 [1, 6]: > 10 µM
IC50 [2]: > 100 µM
GI50 [3, 7]: > 10 µM
IC50 [4]: 8.8 µM
IC50 [5, 8]: > 100 µM

N#Cc1nc2c(nc1C(N)=O)-c1ccccc1/C2=N\O [Example 11, 2-cyano-9-[hydroxyimino]-9H-indeno[1,2-b]pyrazine-3-carboxylic acid amide]
GI50 [1, 6]: 1.24 µM
IC50 [2]: 2.1 µM
GI50 [3, 7]: 1.6 µM
IC50 [4]: 0.6 µM
IC50 [5, 8]: 13 µM

N#Cc1nc2c(nc1C#N)-c1ccccc1C2=NO [Example 12, 9-[hydroxyimino]-9H-indeno[1,2-b]pyrazine-2,3-dicarbonitrile]
GI50 [1, 6]: 4.4 µM
IC50 [2]: 45 µM
GI50 [3, 7]: 6.5 µM
IC50 [4]: 1.3 µM
IC50 [5, 8]: > 100 µM

CON=C1c2ccccc2-c2nc(C#N)c(C#N)nc21 [Example 13a, 9-(methoxyimino)-9H-indeno[1,2-b]pyrazine-2,3-dicarbonitrile]
GI50 [1]: 0.43 µM
IC50 [2]: 19.5 µM
GI50 ([3]; HCT-116, 72 h): 0.39 µM
IC50 [4]: 2.2 µM
IC50 [5]: > 100 µM

N#Cc1nc2c(nc1C#N)-c1ccccc1/C2=N/Oc1ccccc1 [Example 13e, 9-Phenoxyimino-9H-indeno[1,2-b]pyrazine-2,3-dicarbonitrile]
GI50 [1, 6]: 0.53 µM
IC50 [2]: 32 µM
GI50 [3, 7]: 0.54 µM
IC50 [4]: 0.54 µM
IC50 [5, 8]: > 100 µM

Cc1cccc2c1Cc1nc(C#N)c(C#N)nc1-2 [Example 16c, 8-Methyl-9H-indeno[1,2-b]pyrazine-2,3-dicarbonitrile]
GI50 [1, 6]: 3.37 µM
IC50 [2]: > 100 µM
GI50 [3, 7]: 1.47 µM
IC50 [4]: > 100 µM
IC50 [5, 8]: > 100 µM

COc1ccc2c(c1)-c1nc(C#N)c(C#N)nc1C2=O [Example 17a, 6-Methoxy-9-oxo-9H-indeno[1,2-b]pyrazine-2,3-dicarbonitrile]
GI50 [1, 6]: 1.4 µM
IC50 [2]: 29 µM
GI50 [3, 7]: 0.61 µM
IC50 [4]: 7 µM
IC50 [5, 8]: > 100 µM

COc1cc2c(cc1OC)-c1nc(C#N)c(C#N)nc1C2=O [Example 17b, 6,7-Dimethoxy-9-oxo-9H-indeno[1,2-b]pyrazine-2,3-dicarbonitrile]
GI50 [1, 6]: 0.92 µM
IC50 [2]: > 100 µM
GI50 [3, 7]: 0.53 µM
IC50 [4]: 5.4 µM
IC50 [5, 8]: 10.2 µM

Cc1cccc2c1C(=O)c1nc(C#N)c(C#N)nc1-2 [Example 17c, 8-Methyl-9-oxo-9H-indeno[1,2-b]pyrazine-2,3-dicarbonitrile]
GI50 [1, 6]: 0.93 µM
IC50 [2]: 60 µM
GI50 [3, 7]: 0.39 µM
IC50 [4]: 2 µM
IC50 [5, 8]: > 100 µM

COc1ccc2c(c1OC)C(=O)c1nc(C#N)c(C#N)nc1-2 [Example 17d, 7,8-Dimethoxy-9-oxo-9H-indeno[1,2-b]pyrazine-2,3-dicarbonitrile]
GI50 [1, 6]: 0.91 µM
IC50 [2]: 2.5 µM
GI50 [3, 7]: 0.68 µM
IC50 [4]: 0.77 µM
IC50 [5, 8]: 18 µM

Cc1ccc2c(c1)-c1nc(C#N)c(C#N)nc1C2=O [Example 17e, 6-Methyl-9-oxo-9H-indeno[1,2-b]pyrazine-2,3-dicarbonitrile]
GI50 [1, 6]: 1.32 µM
IC50 [2]: 7.8 µM
GI50 [3, 7]: 0.3 µM
IC50 [4]: 2.1 µM
IC50 [5, 8]: 7.2 µM

COc1ccc(OC)c2c1C(=O)c1nc(C#N)c(C#N)nc1-2 [Example 17f, 5,8-Dimethoxy-9-oxo-9H-indeno[1,2-b]pyrazine-2,3-dicarbonitrile]
GI50 [1, 6]: 0.8 µM
IC50 [2]: 3.3 µM
GI50 [3, 7]: 0.93 µM
IC50 [4]: 0.6 µM
IC50 [5, 8]: 12.7 µM

N#Cc1nc2c(nc1C#N)-c1ccc(Cl)cc1C2=O [Example 17g, 7-Chloro-9-oxo-9H-indeno[1,2-b]pyrazine-2,3-dicarbonitrile]
GI50 [1, 6]: 1.11 µM
IC50 [2]: 0.16 µM
GI50 [3, 7]: 0.32 µM
IC50 [4]: 0.07 µM
IC50 [5, 8]: 0.53 µM

N#Cc1nc2c(nc1C#N)-c1ccc(F)cc1C2=O [Example 17h, 7-Fluoro-9-oxo-9H-indeno[1,2-b]pyrazine-2,3-dicarbonitrile]
GI50 [1, 6]: 0.57 µM
IC50 [2]: 1 µM
GI50 [3, 7]: 0.16 µM
IC50 [4]: 0.33 µM
IC50 [5, 8]: 4.3 µM

— US8648076B2, “Cysteine protease inhibitors and their therapeutic applications” (Hybrigenics SA, priority 2005, dated 2014)
